We go through 25 test systems from the supplement of paper PMC11150407.

What all share (test): area under dose-response viability curve (log dose) (AUC (arbitrary)); higher = less sensitive
Conditions in all cases: 72 h

Compound in one experiment: CC[C@]1(O)C[C@H]2CN(CCc3c([nH]c4ccccc34)[C@@](C(=O)OC)(c3cc4c(cc3OC)N(C=O)[C@H]3[C@@](O)(C(=O)OC)[C@H](OC(C)=O)[C@]5(CC)C=CCN6CC[C@]43[C@@H]65)C2)C1 [Vincristine]
The procedure:
(§1)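 Primary AML blasts from patients (3q26 EVI1-high and other AML) were treated for 72 h with a dose series of each drug. Viability was measured with an ATP-based CellTiter-Glo assay. The area under the curve of the log-transformed dose-response data was computed in GraphPad Prism; a lower AUC means greater sensitivity.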

Compound in a further experiment: COc1cccc2c1C(=O)c1c(O)c3c(c(O)c1C2=O)C[C@@](O)(C(C)=O)C[C@@H]3O[C@H]1C[C@H](N)[C@H](O)[C@H](C)O1 [Daunorubicine]
The procedure: as §1

Compound in the next experiment: CN(Cc1cnc2nc(N)nc(N)c2n1)c1ccc(C(=O)N[C@@H](CCC(=O)O)C(=O)O)cc1 [Methotrexate]
The procedure:
as §1

Compound in the next experiment: O=C(/C=C/c1cccc(S(=O)(=O)Nc2ccccc2)c1)NO [Belinostat]
As to the method: as §1

Compound in a further experiment: Nc1ccccc1NC(=O)c1ccc(CNC(=O)OCc2cccnc2)cc1 [Entinostat]
As to the method:
as §1

Compound in another experiment: CC(C)[C@H](C(=O)Nc1ccc(C(=O)NO)cc1)c1ccccc1 [AR-42]
As to the method: as §1

As for PR#002 (EVI1 status: EVI1High), the “area under dose-response viability curve” value was 179 with Vincristine; 110 in the experiment with Daunorubicine; 232 with Methotrexate; 179 in the experiment with Belinostat; 145 with Entinostat; 132 in the experiment with AR-42.
In the case of PR#003 (EVI1 status: EVI1High), the “area under dose-response viability curve” value with Vincristine is 162; with Daunorubicine it was 68; with Methotrexate it was 239; in the experiment with Belinostat, 156; with Entinostat it was 142; with AR-42, 112.
PR#004 (EVI1 status: EVI1High): the “area under dose-response viability curve” value turned out to be 171 with Vincristine; 63.5 with Daunorubicine; 237 with Methotrexate; 121 with Belinostat; 84.7 with Entinostat; 78.8 with AR-42.
Take PR#005 (EVI1 status: EVI1High): the “area under dose-response viability curve” value stood at 156 in the experiment with Vincristine; 87.5 with Daunorubicine; 198 in the experiment with Methotrexate; 138 in the experiment with Belinostat; 107 in the experiment with Entinostat; 156 with AR-42.
For PR#006 (EVI1 status: EVI1High), the “area under dose-response viability curve” value turned out to be 136 with Vincristine; 57.7 with Daunorubicine; 248 with Methotrexate; 138 in the experiment with Belinostat; 120 with Entinostat; 120 with AR-42.
Turning to PR#007 (EVI1 status: EVI1High), the “area under dose-response viability curve” value with Vincristine came to 186; in the experiment with Daunorubicine, 110; with Methotrexate it was 245; with Belinostat, 157; in the experiment with Entinostat it was 172; with AR-42, 163.
Take PR#008 (EVI1 status: EVI1High): the “area under dose-response viability curve” value with Vincristine stood at 116; with Daunorubicine, 15; in the experiment with Methotrexate, 195; with Belinostat, 81.8; with Entinostat, 82.3; with AR-42 it was 55.7.
As to PR#010 (EVI1 status: EVI1Low), the “area under dose-response viability curve” value came to 172 with Vincristine; 93.9 with Daunorubicine; 256 in the experiment with Methotrexate; 177 with Belinostat; 147 with Entinostat; 121 in the experiment with AR-42.
On to PR#011 (EVI1 status: EVI1Low), for which the “area under dose-response viability curve” value in the experiment with Vincristine is 196; with Daunorubicine, 132; with Methotrexate it was 226; in the experiment with Belinostat, 209; in the experiment with Entinostat it was 200; with AR-42, 188.
For PR#012 (EVI1 status: EVI1Low), the “area under dose-response viability curve” value was 89.8 with Vincristine; 120 with Daunorubicine; 218 with Methotrexate; 192 in the experiment with Belinostat; 139 in the experiment with Entinostat; 131 with AR-42.
As for PR#013 (EVI1 status: EVI1Low), the “area under dose-response viability curve” value in the experiment with Vincristine was 193; with Daunorubicine, 68.1; with Methotrexate, 233; in the experiment with Belinostat, 169; in the experiment with Entinostat, 153; with AR-42, 130.
For PR#014 (EVI1 status: EVI1Low), the “area under dose-response viability curve” value with Vincristine worked out at 198; with Daunorubicine, 63.9; with Methotrexate, 248; with Belinostat it was 195; with Entinostat, 133; with AR-42 it was 128.
Take PR#015 (EVI1 status: EVI1Low): the “area under dose-response viability curve” value was 128 with Vincristine; 37 with Daunorubicine; 248 with Methotrexate; 227 with Belinostat; 145 in the experiment with Entinostat; 149 with AR-42.
With PR#016 (EVI1 status: EVI1Low), the “area under dose-response viability curve” value in the experiment with Vincristine amounted to 152; with Daunorubicine, 104; with Methotrexate, 270; in the experiment with Belinostat, 156; with Entinostat, 159; in the experiment with AR-42, 148.
Turning to PR#017 (EVI1 status: EVI1Low), the “area under dose-response viability curve” value with Vincristine was 204; with Daunorubicine, 89.5; with Methotrexate it was 237; in the experiment with Belinostat it was 160; with Entinostat, 191; with AR-42, 163.
In the case of PR#018 (EVI1 status: EVI1Low), the “area under dose-response viability curve” value in the experiment with Vincristine is 204; with Daunorubicine, 101; in the experiment with Methotrexate, 236; in the experiment with Belinostat, 189; with Entinostat, 211; in the experiment with AR-42, 184.
With PR#019 (EVI1 status: EVI1Low), the “area under dose-response viability curve” value with Vincristine was found to be 203; with Daunorubicine, 128; with Methotrexate it was 245; in the experiment with Belinostat, 225; in the experiment with Entinostat it was 232; with AR-42, 208.
Take PR#020 (EVI1 status: EVI1Low): the “area under dose-response viability curve” value with Vincristine was determined as 128; with Daunorubicine, 61.9; with Methotrexate, 248; in the experiment with Belinostat it was 246; with Entinostat, 182; with AR-42, 130.
Turning to PR#021 (EVI1 status: EVI1Low), the “area under dose-response viability curve” value in the experiment with Vincristine amounted to 195; with Daunorubicine, 122; in the experiment with Methotrexate it was 241; with Belinostat, 202; in the experiment with Entinostat it was 215; with AR-42 it was 189.
For PR#022 (EVI1 status: EVI1Low), the “area under dose-response viability curve” value came out at 175 with Vincristine; 59.5 in the experiment with Daunorubicine; 244 with Methotrexate; 161 with Belinostat; 185 in the experiment with Entinostat; 140 in the experiment with AR-42.
PR#023 (EVI1 status: EVI1High): the “area under dose-response viability curve” value with Vincristine was 140; with Daunorubicine, 138; with Methotrexate it was 240; with Belinostat, 165; with Entinostat it was 162; in the experiment with AR-42, 139.
Consider PR#024 (EVI1 status: EVI1High), for which the “area under dose-response viability curve” value with Vincristine is 97; with Daunorubicine, 66.1; with Methotrexate, 249; with Belinostat, 122; with Entinostat it was 167; with AR-42, 106.
For the test system PR#025 (EVI1 status: EVI1Low), the “area under dose-response viability curve” value was 214 with Vincristine; 77.4 in the experiment with Daunorubicine; 247 with Methotrexate; 197 in the experiment with Belinostat; 256 with Entinostat; 178 with AR-42.
With PR#026 (EVI1 status: EVI1Low), the “area under dose-response viability curve” value with Vincristine turned out to be 90.2; with Daunorubicine, 85.1; in the experiment with Methotrexate, 241; in the experiment with Belinostat it was 189; in the experiment with Entinostat, 205; with AR-42, 155.
Consider PR#027 (EVI1 status: EVI1Low), for which the “area under dose-response viability curve” value is 186 with Vincristine; 63.1 with Daunorubicine; 262 with Methotrexate; 164 in the experiment with Belinostat; 197 with Entinostat; 158 in the experiment with AR-42.
